Measured values taken from ChEMBL document CHEMBL3856212, “Synthesis, anti-proliferative and genotoxicity studies of 6-chloro-5-(2-substituted-ethyl)-1,3-dihydro-2H-indol-2-ones and 6-chloro-5-(2-chloroethyl)-3-(alkyl/ary-2-ylidene)indolin-2-ones” (Eur J Med Chem, 2016).

Assays:
Type in all cases: functional
[1] = Cytotoxicity against human DU145 cells assessed as growth inhibition after 48 hrs by SRB assay; settings: DU-145, 48 h; for CC50: read-out: LD50 (the source's name)
[2] = Cytotoxicity against human TK10 cells assessed as growth inhibition after 48 hrs by SRB assay; settings: TK-10, 48 h; for CC50: read-out: LD50 (the source's name)
[3] = Cytotoxicity against human Caki1 cells assessed as assessed as growth inhibition at 10^-5 M after 48 hrs by SRB assay relative to control; settings: CAKI-1, 48 h, read-out: GI
[4] = Cytotoxicity against human K562 cells assessed as growth inhibition after 48 hrs by SRB assay; settings: K562, 48 h; for CC50: read-out: LD50 (the source's name)
[5] = Cytotoxicity against human A498 cells assessed as growth inhibition after 48 hrs by SRB assay; settings: A498, 48 h; for CC50: read-out: LD50 (the source's name)
[6] = Cytotoxicity against human HOP92 cells assessed as growth inhibition after 48 hrs by SRB assay; settings: HOP-92, 48 h; for CC50: read-out: LD50 (the source's name)
[7] = Cytotoxicity against human IGROV1 cells assessed as growth inhibition after 48 hrs by SRB assay; settings: IGROV-1, 48 h; for CC50: read-out: LD50 (the source's name)
[8] = Cytotoxicity against human SF268 cells assessed as growth inhibition after 48 hrs by SRB assay; settings: SF-268, 48 h; for CC50: read-out: LD50 (the source's name)
[9] = Cytotoxicity against human DU145 cells assessed as assessed as growth inhibition at 10^-5 M after 48 hrs by SRB assay relative to control; settings: DU-145, 48 h, read-out: GI
[10] = Cytotoxicity against human MALME-3M cells assessed as assessed as growth inhibition at 10^-5 M after 48 hrs by SRB assay relative to control; settings: read-out: GI
[11] = Cytotoxicity against human 786-0 cells assessed as assessed as growth inhibition at 10^-5 M after 48 hrs by SRB assay relative to control; settings: 786-0, 48 h, read-out: GI
[12] = Cytotoxicity against human UO31 cells assessed as growth inhibition after 48 hrs by SRB assay; settings: UO-31, 48 h; for CC50: read-out: LD50 (the source's name)
[13] = Cytotoxicity against human SW1222 cells assessed as assessed as growth inhibition at 10^-5 M after 48 hrs by SRB assay relative to control; settings: SW1222, 48 h, read-out: GI
[14] = Cytotoxicity against human UACC62 cells assessed as growth inhibition after 48 hrs by SRB assay; settings: UACC-62, 48 h; for CC50: read-out: LD50 (the source's name)
[15] = Cytotoxicity against human MALME-3M cells assessed as growth inhibition after 48 hrs by SRB assay; settings: for CC50: read-out: LD50 (the source's name)
[16] = Cytotoxicity against human COLO205 cells assessed as assessed as growth inhibition at 10^-5 M after 48 hrs by SRB assay relative to control; settings: COLO 205, 48 h, read-out: GI

Row | SMILES | GI50 [1] | TGI [1] | CC50 [1] | GI50 [2] | TGI [2] | inhibition of growth at 10 µM [3] | GI50 [4] | TGI [4] | CC50 [4] | GI50 [5] | TGI [5] | CC50 [5] | GI50 [8] | TGI [8] | CC50 [8] | inhibition of growth at 10 µM [10] | inhibition of growth at 10 µM [11] | GI50 [14] | TGI [14] | CC50 [14] | also measured
1 | O=C1Cc2cc(CCn3cncn3)c(Cl)cc2N1 | 1000 nM | > 1000 nM | > 1000 nM | 1000 nM | > 1000 nM | 40% | 7.68 µM | > 1000 nM | > 1000 nM | 3250 nM | > 1 µM | > 1000 nM | 5960 nM | > 1000 nM | > 1000 nM | 6.24% | 5.34% | 2.07 µM | > 1000 nM | > 1000 nM | CC50 [2]: > 1000 nM; GI50 [6]: 3.02 µM; TGI [6]: > 1 µM; CC50 [6]: > 1000 nM; GI50 [7]: 1000 nM; TGI [7]: > 1000 nM; CC50 [7]: > 1000 nM; inhibition of growth at 10 µM [9]: 3.54%; GI50 [12]: 1 µM; TGI [12]: > 1000 nM; CC50 [12]: > 1000 nM; inhibition of growth at 10 µM [13]: 45.8%; GI50 [15]: 1 µM; TGI [15]: > 1000 nM; CC50 [15]: > 1000 nM
2 | O=C1Cc2cc(CCn3ccnc3)c(Cl)cc2N1 | 8020 nM | > 1000 nM | > 1000 nM | 1000 nM | > 1000 nM | 36.3% | 8.26 µM | > 1000 nM | > 1000 nM | 2190 nM | 6.11 µM | > 1000 nM | 1210 nM | > 1000 nM | > 1000 nM | 2.24% | 10.6% | 7.68 µM | > 1000 nM | > 1000 nM | inhibition of growth at 10 µM [16]: 29.9%; CC50 [2]: > 1000 nM; GI50 [6]: 3.54 µM; TGI [6]: 9.15 µM; CC50 [6]: > 1000 nM; GI50 [7]: 1000 nM; TGI [7]: > 1000 nM; CC50 [7]: > 1000 nM; inhibition of growth at 10 µM [9]: 31%; GI50 [12]: 5.85 µM; TGI [12]: > 1000 nM; CC50 [12]: > 1000 nM; GI50 [15]: 7.95 µM; TGI [15]: > 1000 nM; CC50 [15]: > 1000 nM
3 | O=C1Cc2cc(CCN3CCNCC3)c(Cl)cc2N1 | 1990 nM | > 1000 nM | > 1000 nM |  |  | 37.2% | 6.24 µM | > 1000 nM | > 1000 nM | 2850 nM | > 1 µM | > 1000 nM | 1270 nM | > 1000 nM | > 1000 nM | 19.6% | 15.3% | 6.54 µM | > 1000 nM | > 1000 nM | inhibition of growth at 10 µM [16]: 40.1%; inhibition of growth at 10 µM [13]: 59.2%
